Measured values reported in patent publication US4534980A, “Antiinflammatory and antipyretic cream” (Hokuriku Pharmaceutical Co., Ltd., priority 1984, dated 1985).

Tests used:
[1] = tested on: carrageenin induced paw edema; settings: 5 mg/kg, Folia Pharmacologica Japonica vol. 70, page 543 (1974); cited from earlier work
[2] = tested on: carrageenin induced paw edema; experiment: Antiinflammatory effect on carrageenin induced paw edema (Experiments 3, 8); type: in vivo, Wistar male rats; settings: inhibition rate in oral administration = 1.00
Experimental: The antiinflammatory effect of the test compositions in Experiment 1 was determined by an effect on carrageenin induced paw edema. The experiment was performed using 8 Wistar male rats weighing approximately 170 g per one group. After previously measuring the volume of left hind paw, 50 mg each of the test compositions (stored at room temperature for one month after the preparation) was applied twice, left hind paw of the rat, 2 hours and 1 hour before injection of an inflammatory agent. As the inflammatory agent, 0.1 ml of a 1% carrageenin solution was subcutaneously injected at the left hind paw. The volume of the left hind paw was measured 3 hours after and a swelling was determined based on the volume before injecting the inflammatory agent. A group in which no test composition was applied was made a control group and the inhibition rate was calculated based thereon as follows. [formula]
The antiinfammatory effect was examined with the test compositions of Experiment 7, in a manner similar to Experiment 3.

CC(C(=O)O)c1cccc(C(=O)c2ccccc2)c1 (centres unmarked) [Ketoprofen]
Inhibition Rate, Oral Administration (Table 3) [1]: 45.9%
Potency Ratio (Table 3) [2]: 1.00
